According to PubChem BioAssay AID2027 (NMMLSC, 2009):

These molecules were tested against Ras-related C3 botulinum toxin substrate 1 (Homo sapiens) (UniProt P63000) (assay: wildtype Rac1 GTP binding inhibitors, SAR follow-up, biochemical, oxadiazole analogs, multiplex bead flow cytometry (AID 2027)). Conditions: GST-Rac1 beads, Bodipy-FL-GTP binding, Ki calculated from EC50.

SMILES	Ki
COc1ccc(-c2coc(CCC(=O)N3CCN(c4cc(C)ccc4C)CC3)n2)cc1	210 nM
Cc1ccc(C)c(N2CCN(C(=O)CCc3nc(-c4ccccc4Br)no3)CC2)c1	160 nM
Cc1ccc(C)c(N2CCN(C(=O)CCc3nc(-c4ccc(Br)cc4)no3)CC2)c1	280 nM
COc1ccc(-c2noc(CCC(=O)N3CCN(c4ccc(OC)cc4)CC3)n2)cc1	50 nM
Cc1ccc(C)c(N2CCN(C(=O)CCc3nc(-c4ccccc4Cl)no3)CC2)c1	110 nM
Cc1ccc(C)c(N2CCN(C(=O)CCc3nc(-c4ccccc4F)no3)CC2)c1	170 nM
COc1ccccc1-c1noc(CCC(=O)N2CCN(c3cc(C)ccc3C)CC2)n1	1410 nM
COc1ccc(-c2noc(CCC(=O)N3CCN(c4ccccc4Cl)CC3)n2)cc1	310 nM
COc1ccc(-c2noc(CCC(=O)N3CCN(c4ccccc4C(F)(F)F)CC3)n2)cc1	160 nM
COc1ccc(-c2noc(CCC(=O)N3CCN(c4ccc(C)cc4)CC3)n2)cc1	250 nM
COc1ccc(-c2noc(CCC(=O)N3CCN(c4ccc(Br)cc4)CC3)n2)cc1	20 nM
Cc1ccc(C)c(N2CCN(C(=O)CCc3nc(-c4ccc(C(F)(F)F)cc4)no3)CC2)c1	200 nM
Cc1cccc(-c2noc(CCC(=O)N3CCN(c4cc(C)ccc4C)CC3)n2)c1	110 nM
COc1cccc(-c2noc(CCC(=O)N3CCN(c4cc(C)ccc4C)CC3)n2)c1	570 nM
Cc1ccc(-c2noc(CCC(=O)N3CCN(c4cc(C)ccc4C)CC3)n2)cc1	300 nM
Cc1ccc(C)c(N2CCN(C(=O)CCc3nc(-c4cccc(C(F)(F)F)c4)no3)CC2)c1	230 nM
COc1ccc(-c2noc(CCC(=O)N3CCN(c4ccccc4F)CC3)n2)cc1	100 nM
COc1ccc(-c2noc(CCC(=O)N3CCN(c4cc(C)ccc4C)CC3)n2)cc1	470 nM

SMILES	Ki
Cc1ccc(C)c(N2CCN(C(=O)CCc3nc(-c4ccc(Cl)cc4)no3)CC2)c1	170 nM
COc1ccc(-c2noc(CCC(=O)N3CCC(c4cc(C)ccc4C)CC3)n2)cc1	110 nM
Cc1ccc(C)c(N2CCN(C(=O)CCc3nc(-c4ccc(F)cc4)no3)CC2)c1	120 nM
Cc1ccc(C)c(N2CCN(C(=O)CCc3nc(-c4ccc(N(C)C)cc4)no3)CC2)c1	260 nM
Cc1ccc(C)c(N2CCN(C(=O)CCc3nc(-c4ccccc4)no3)CC2)c1	150 nM
Cc1ccc(C)c(N2CCN(C(=O)CCc3nc(-c4ccccc4C)no3)CC2)c1	160 nM
Cc1ccc(C)c(N2CCN(C(=O)CCc3nc(-c4cccc(Cl)c4)no3)CC2)c1	460 nM
COc1ccc(-c2noc(CCC(=O)N3CCN(c4ccccc4C)CC3)n2)cc1	130 nM
COc1ccc(-c2noc(CC(=O)N3CCN(c4cc(C)ccc4C)CC3)n2)cc1	700 nM
Cc1ccc(C)c(N2CCN(C(=O)CCc3nc(-c4cccc(F)c4)no3)CC2)c1	140 nM
Cc1ccc(C)c(N2CCN(C(=O)CCc3nc(-c4cccc(Br)c4)no3)CC2)c1	160 nM
Cc1ccc(C)c(N2CCN(C(=O)CCc3nc(-c4ccccc4C(F)(F)F)no3)CC2)c1	200 nM
COc1ccc(-c2noc(CCC(=O)N3CCN(c4ccccc4Br)CC3)n2)cc1	160 nM
COc1ccc(-c2noc(CCC(=O)N3CCN(c4ccccc4OC)CC3)n2)cc1	210 nM
COc1ccc(-c2noc(CCC(=O)N3CCN(c4ccc(F)cc4)CC3)n2)cc1	150 nM
COc1ccc(-c2noc(CCCC(=O)N3CCN(c4cc(C)ccc4C)CC3)n2)cc1	350 nM
COc1ccc(-c2noc(CCC(=O)N3CCN(c4cccc(C)c4C)CC3)n2)cc1	120 nM
COc1ccc(-c2noc(CCCCC(=O)N3CCN(c4cc(C)ccc4C)CC3)n2)cc1	1960 nM
